Ten compounds from patent US20030162825A1, “D-amino acid oxidase inhibitors for learning and memory” (SEPRACOR INC., priority 2001, published 2003) can be followed below.

Structures are written as SMILES. “Also recorded” adds a separate entry of the source.

The target in assay [1] is T1, Porcine kidney D-amino acid oxidase (Sus scrofa, UniProt P00371).
T1 construct: purchased Sigma Company A-5222; host or cells: porcine kidney
Kind of assay: D-amino acid oxidase inhibition assay (Amplex Red Hydrogen Peroxide Assay Kit). It is filed as biochemical. As to conditions: D-serine substrate, reaction time five minutes; for inhibition at 40 µg/mL: inhibitor at 40 μg/mL. As for the experimental part: A working solution was prepared by mixing: sodium phosphate buffer (8.7 ml, 0.025M, pH 7.4), D-serine solution (1.0 ml, 100 mM in water), horseradish peroxidase (0.2 ml, 200 U/ml in buffer), and Amplex™ Red solution (0.1 ml, 1 mg dye in 200 μl in DMSO (50 μM in DMSO)). A working enzyme solution was prepared by diluting a D-amino oxidase stock solution (65 U/ml) one hundred fold. The working solution (100 μl) was transferred to wells of a Microfluor B microtiter plate and a solution of the inhibitor in DMF was added.
Control experiments were carried out using DMF in the absence of inhibitor.

The test system of another assay is rats. Kind of assay: Morris water maze test (learning and memory). It is filed as in vivo, rat. On the procedure: Training was conducted in a circular pool (160 cm in diameter) filled with water to a depth of 35 cm. The walls of the pool were blue, and the water was made opaque by the addition of approximately 20 ml of white, non-toxic water-based food dye. Water temperature was maintained at approximately 25° C.
During training, rats learn to swim to a submerged platform (approximately 2.5 cm below the surface) constructed of Nalgene with a roughened Plexiglas surface. The surface diameter was approximately 16 cm and its height was approximately 27.5 cm. Experiments were conducted in a darkened room. Lighting of the water-maze was arranged so that illumination of the pool was dim and equivalent in all quadrants. Both acquisition data and retention probe data were collected using Videomex Morris maze software and interface (Columbus Instruments, Columbus, Ohio). The apparatus monitored the animal's progress using a video camera connected to a monitor and a video analysis computer that was outside the view of the swimming animal. Latencies to escape to the platform, the animal's swimming route, and its time spent in the platform-containing quadrant were measured.
Morris maze acquisition training (learning) consisted of 18 trials presented in 6 blocks of 3 trials each. During all training and testing procedures, the experimenter was blind to the animal group membership. To orient the animals to the task, training began with placement of the animal's front paws onto the platform followed by 10 sec of the animal's standing on the platform. Immediately after the third placement, training commenced with the first block of 3 trials. The platform was placed in the center of the southwest quadrant for all training. On each trial, rats were placed into the pool randomly at one of 6 different angular directions. […] Latency to escape to the platform was measured for each trial. […]
[…] The amount of time spent in the quadrant previously occupied by the platform and number of crosses over the previous position of the platform were recorded for each animal. […]

T1 sequence (P00371 whole entry): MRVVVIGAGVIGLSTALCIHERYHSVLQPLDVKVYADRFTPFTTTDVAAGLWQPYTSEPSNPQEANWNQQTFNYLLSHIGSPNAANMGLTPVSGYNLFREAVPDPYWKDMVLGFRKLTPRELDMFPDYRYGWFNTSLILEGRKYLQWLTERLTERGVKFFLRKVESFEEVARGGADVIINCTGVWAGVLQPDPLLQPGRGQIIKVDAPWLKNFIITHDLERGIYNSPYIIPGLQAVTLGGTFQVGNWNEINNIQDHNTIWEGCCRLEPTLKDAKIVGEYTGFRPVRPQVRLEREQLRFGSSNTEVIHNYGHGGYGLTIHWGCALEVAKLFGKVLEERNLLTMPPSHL

By IC50 is commonly meant the concentration that gives 50% inhibition. A lower IC50 goes with greater potency. The compound `O=C(O)c1ccc([N+](=O)[O-])c2c1NC(c1ccc([N+](=O)[O-])cc1)C1CC=CC21` (stereo not shown) [compound 11] showed an IC50 in assay [1] of 29 µM.

As to `O=C(O)c1ccc([N+](=O)[O-])c2c1NC(c1ccccc1)C1CC=CC21` (stereo not shown) [compound 10], the IC50 in assay [1] was determined as 17 µM.

The inhibition is the relative decrease from the control value, in per cent. Read a low inhibition as a response near the control. The compound `O=C(O)c1cc2cc(Cl)ccc2[nH]1` [compound 4] yielded an inhibition at 40 µg/mL in assay [1] of 86%.

As to `O=C(O)c1cc2ccccc2[nH]1` [I-2-C, indole-2-carboxylic acid], the “retention (seconds swimming in the quadrant previously containing the escape platform)” value in the assay on rats (first experiment: 200 mg/kg ip four times, one hour before first, second, fourth and sixth training period, four days after training) is “improved retention”. The retention in seconds entry in the assay with rats (second experiment: single injection 200 mg/kg, eight days later, 200 mg/kg) is listed as “improving effect on retention; also recorded: improved retention”. In the assay on rats (third experiment: single injection 200 mg/kg, first probe trial), the retention result is “improved retention”.

For `O=C(O)c1cc2cc(O)ccc2[nH]1` [compound 2], in assay [1], testing at 40 µg/mL gave an inhibition of 90%.

Take `Cn1c(C(=O)O)cc2ccccc21` [compound 6]: 40 µg/mL produced 58% inhibition in assay [1].

In assay [1], `COc1ccc2[nH]c(C(=O)O)cc2c1` [compound 7] registered an inhibition at 40 µg/mL of 32%.

As to `O=C(O)c1cc2ccccc2[nH]1` [compound 1], in assay [1], the IC50 came out at 2 µM and the inhibition at 40 µg/mL was determined as 93%.

Regarding `O=C(O)c1ccc[nH]1` [compound 3], in assay [1], the inhibition at 40 µg/mL was determined as 87%.

Turning to `O=C(O)c1cc2ccccc2o1` [compound 5], the inhibition at 40 µg/mL in assay [1] amounted to 85%.
